Measurements published in patent publication US20140357512A1, “HISTONE DEACETYLASE (HDAC) BIOMARKERS IN MULTIPLE MYELOMA” (priority 2013, published 2014).

Tested on: human myeloma cell line MM.1S
Assay: SILAC acetylated-lysine peptide profiling, HDAC inhibitor vs DMSO (light/heavy ratio)
Type: cell-based
Source text: An embodiment of the invention comprises utilizing the SILAC method in order to quantitate changes in protein expression between two or more populations of cells. The SILAC method is a technique based on mass spectrometry that detects differences in protein abundance among samples using non-radioactive isotopic labeling. The SILAC method is known in the art, and described in detail in Ong et al., “Stable Isotope Labeling by Amino Acids in Cell Culture, SILAC, as a Simple and Accurate Approach to Expression Proteomics”, Molecular & Cellular Proteomics, vol. 1, pp. 376-386 (2002), which is incorporated herein by reference in its entirety.
Briefly, the SILAC method involves growing two populations of cells in cell culture. The first population of cells is grown in growth media containing normal amino acids (“normal media”). The second population of cells is grown in media lacking a standard essential amino acid (such as lysine), but is then supplemented with a non-radioactive, isotopically labeled form of that essential amino acid (such as lysine labeled with ^13C atoms, rather than normal ^12C atoms), which is called “heavy media”. When the two populations of cells are each growing in the medium, they incorporate the amino acids into all of their proteins. The growth of cells maintained in the heavy media is no different from that in normal media. All peptides containing the heavy amino acids are heavier than their normal counterparts. The cells from each of the two populations of cells are lysed. The lysates from each of the two cell populations are then combined. The combined cell lysates are then analyzed by mass spectrometry. Pairs of chemically identical peptides of different stable isotope composition can be differentiated in a mass spectrometer due to their difference in mass. The ratio of peak intensities in the mass spectrum for such peptide pairs reflects the abundance ratio for the two proteins.
This example describes SILAC studies that were performed to compare the effects of three different HDAC inhibitors (Compound A, Compound B, and tubastatin A) to a control on a human multiple myeloma cell line. The HDAC inhibitors were also compared amongst themselves to determine differences in their effects.
A human myeloma cell line MM.1S was grown using either ^12C (light) or ^13C (heavy) lysine containing culture medium. The “heavy” cells were treated with DMSO as the control, and the “light” cells were treated with a single HDAC inhibitor at 37° C. for 6 hours. The heavy and light cells were lysed, and the lysates were mixed in 1:1 ratio and digested with the protease trypsin. The acetylated lysine containing peptides (due to the action of the HDAC inhibitor) in the digested peptide pool were captured by a non-specific anti-acetylated lysine antibody cocktail (the antibodies identify both light and heavy acetylated peptides), and subjected to mass spectrometry analysis in order to identify thousands of individual peptides.
Thousands of peptides were identified in pairs (^12C and ^13C) due to their known mass differences. The amino acid sequence and quantitative ratio (Light/Heavy) of a given peptide in two differentially treated cell lysates were then determined and annotated with their possible protein (gene) sources.
As stated above, three HDAC inhibitors (Compound A, Compound B, and Tubastatin A) were used. Thus, the SILAC method was performed three times, with a different HDAC inhibitor compared to a control each time. Accordingly, there are three pairs of quantitative data in the table below, i.e., Compound A:DMSO, Compound B:DMSO, and Tubastatin A:DMSO. A cut-off of 1.30 fold of change (increase or decrease) was then used to determine “changed” or “+” in the table, and any peptides with a fold of change less than 1.3 fold were determined to be “unchanged” or “0” in the table. Those peptides that were not identified were marked as “NA” in the table. […]

In the case of `CN1CCc2c(c3ccccc3n2Cc2ccc(C(=O)NO)cc2)C1` [Tub A], the “light to heavy ratio (L/H ratio) of acetylated peptide SNPSEVVEFTTCPDK(ac)PGIPVKPSVK (SEQ ID NO: 336)” value (Isoform 2 of Fibronectin type-III domain-containing protein 3A [507], FNDC3A, drug:DMSO) is reported as 0.00 log 2, the “light to heavy ratio (L/H ratio) of acetylated peptide LIAGNK(ac)PVSFLTAQQLQQLQQQGQATQVR (SEQ ID NO: 512)” value (Isoform 2 of Nuclear factor related to kappa-B-binding protein [1262], gene NFRKB, inhibitor:DMSO) is reported as 0.00 log 2 and the “light to heavy ratio (L/H ratio) of acetylated peptide YQQFK(ac)DFQR (SEQ ID NO: 258)” value (Isoform 2 of Spliceosome RNA helicase DDX39B [349], SNORD84, DDX39B, drug:DMSO) is reported as −0.38 log 2. For the same molecule, the “light to heavy ratio (L/H ratio), log 2 scale, acetylated peptide LEPLK(ac)PLK (SEQ ID NO: 772)” value (Isoform 3 of Proline-rich protein 12 [1223], gene PRR12, drug:DMSO) was 0.00, the “light to heavy ratio (L/H ratio), log 2 scale, acetylated peptide DQTK(ac)SIVEK (SEQ ID NO: 810)” value (Isoform 3 of Reticulon-3 [217], gene RTN3, drug:DMSO) was 0.00 and the “light to heavy ratio (L/H ratio) of acetylated peptide VQDGLSDIAEK(ac)FLK (SEQ ID NO: 326)” value (Isoform 5 of Transcriptional regulator ATRX [812], ATRX, drug:DMSO) was 0.00 log 2. For the same molecule, the “light to heavy ratio (L/H ratio) of acetylated peptide K(ac)SSETLR (SEQ ID NO: 601)” value (Isoform CNPI of 23-cyclic-nucleotide 3-phosphodiesterase [177], gene CNP, inhibitor:DMSO) was 0.00 log 2, the “light to heavy ratio (L/H ratio) of acetylated peptide MVAAAK(ac)YAR (SEQ ID NO: 324)” value (Isoform Heart of ATP synthase subunit gamma mitochondrial [55], ATP5C1, drug:DMSO) was 0.00 log 2 and the “light to heavy ratio (L/H ratio) of acetylated peptide VPNDK(ac)YYGAQTVR (SEQ ID NO: 625)” value (Isoform Mitochondrial of Fumarate hydratase mitochondrial [66], gene FH, inhibitor:DMSO) was 0.00 log 2. For the same molecule, the “light to heavy ratio (L/H ratio) of acetylated peptide APQCLGK(ac)FIEIAAR (SEQ ID NO: 338)” value (Isoform Short of Heterogeneous nuclear ribonucleoprotein U [546], HNRNPU, drug:DMSO) was 0.00 log 2, the “light to heavy ratio (L/H ratio) of acetylated peptide LLEQYK(ac)EESK (SEQ ID NO: 302)” value (Isoform Short of Heterogeneous nuclear ribonucleoprotein U [651], HNRNPU, drug:DMSO) was −0.57 log 2 and the “light to heavy ratio (L/H ratio) of acetylated peptide, log 2 scale” value (K(ac)HPDASVNFSEFSK (SEQ ID NO: 164), Similar to nonhistone chromosomal protein HMG-1 [30], HMGB1P4) was −0.39. The “light to heavy ratio (L/H ratio) of acetylated peptide, log 2 scale” value (K(ac)TFEINPR (SEQ ID NO: 171), Endoplasmin [683], HSP90B1) was −0.73, the “light to heavy ratio (L/H ratio) of acetylated peptide, log 2 scale” value (K(ac)YEDICPSTHNMDVPNIK (SEQ ID NO: 152), Eukaryotic translation initiation factor 5A-2 [68], EIF5A2) was −0.56 and the “light to heavy ratio (L/H ratio) of acetylated peptide, log 2 scale” value (KLPK(ac)NEPQNATGAPGR (SEQ ID NO: 198), Ras-related protein Rab-5C [184], RAB5C) was 0.38. The “light to heavy ratio (L/H ratio), log 2 scale, acetylated peptide (ac)ASPSLERPEK(ac)GAGK (SEQ ID NO: 801)” value (KRR1 small subunit processome component homolog [11], gene KRR1, drug:DMSO) was 0.00, the “light to heavy ratio (L/H ratio) of acetylated peptide IVADK(ac)DYSVTANSK (SEQ ID NO: 317)” value (L-lactate dehydrogenase B chain [82], LDHB, drug:DMSO) was 0.51 log 2 and the “L/H ratio of acetylated peptide” value (LAK(ac)LSDGVAVLK (SEQ ID NO: 484), 60 kDa heat shock protein mitochondrial [396], HSPD1) was 0.00 log 2. For the same molecule, the “light to heavy ratio (L/H ratio) of acetylated peptide, log 2 scale” value (LENK(ac)MEGIGLK (SEQ ID NO: 131), PRA1 family protein 3 [151], ARL6IP5) was 0.67, the “light to heavy ratio (L/H ratio) of acetylated peptide, log 2 scale” value (LIK(ac)VHLDK (SEQ ID NO: 215), 40S ribosomal protein S7 [155], RPS7) was −0.50 and the “light to heavy ratio (L/H ratio) of acetylated peptide, log 2 scale” value (LIYDTK(ac)GR (SEQ ID NO: 213), 40S ribosomal protein S4 X isoform [106], RPS4X) was −0.40. The “L/H ratio of acetylated peptide IHLEIK(ac)QLNR (SEQ ID NO: 57)” value (LMAN1 [346], log 2 scale, drug vs DMSO) was −0.56, the “L/H ratio of acetylated peptide LYK(ac)EELEQTYHAK (SEQ ID NO: 4)” value (LMNB1 [261], log 2 scale, drug vs DMSO) was 0.46 and the “L/H ratio of acetylated peptide LYKEELEQTYHAK(ac)LENAR (SEQ ID NO: 58)” value (LMNB1 [271], log 2 scale, drug vs DMSO) was −0.73. The “light to heavy ratio (L/H ratio) of acetylated peptide, log 2 scale” value (LNEQK(ac)LAQLEEAK (SEQ ID NO: 133), ATP synthase subunit b mitochondrial [131], ATP5F1) was 0.72, the “L/H ratio of acetylated peptide GFGYK(ac)GSCFHR (SEQ ID NO: 59)” value (LOC390956 [71], log 2 scale, drug vs DMSO) was −0.45 and the “light to heavy ratio (L/H ratio) of acetylated peptide, log 2 scale” value (LSLDK(ac)VFR (SEQ ID NO: 226), Stomatin-like protein 2 [145], STOML2) was −0.41. The “light to heavy ratio (L/H ratio) of acetylated peptide, log 2 scale” value (LTALDYHNPAGFNCK(ac)DETEFR (SEQ ID NO: 137), UPF0568 protein C14orf166 [20], C14orf166) was 0.41, the “light to heavy ratio (L/H ratio) of acetylated peptide, log 2 scale” value (LTEAKPVDK(ac)VK (SEQ ID NO: 221), cDNA FLJ60124 highly similar to Mitochondrial dicarboxylate carrier [142], SLC25A10) was −0.50 and the “L/H ratio of acetylated peptide” value (LTLSALLDGK(ac)NVNAGGHK (SEQ ID NO: 466), Voltage-dependent anion-selective channel protein 1 [266], VDAC1) was 0.00 log 2. For the same molecule, the “L/H ratio of acetylated peptide” value (LVSEK(ac)LASYQAAR (SEQ ID NO: 476), Isoform 2 of Myc proto-oncogene protein [163], MYC) was 0.00 log 2, the “light to heavy ratio (L/H ratio) of acetylated peptide AVLK(ac)FAAATGATPIAGR (SEQ ID NO: 262)” value (Laminin receptor-like protein LAMRL5 [89], SNORA6, RPSAP15, SNORA62, RPSA, drug:DMSO) was −0.53 log 2 and the “light to heavy ratio (L/H ratio) of acetylated peptide SYVSEK(ac)DVTSAK (SEQ ID NO: 628)” value (Leucine-rich PPR motif-containing protein mitochondrial [1332], gene LRPPRC, inhibitor:DMSO) was 0.00 log 2. The “L/H ratio of acetylated peptide ICCQFDFK(ac)R (SEQ ID NO: 60)” value (MAN2A1 [373], log 2 scale, drug vs DMSO) was −0.69, the “L/H ratio of acetylated peptide YLTNQK(ac)NSNSK(ac)NDR (SEQ ID NO: 17)” value (MEAF6 [69:74], log 2 scale, drug vs DMSO) was 0.58 and the “light to heavy ratio (L/H ratio) of acetylated peptide, log 2 scale” value (MKENQK(ac)HIYYITGETK (SEQ ID NO: 169), Isoform 2 of Heat shock protein HSP 90-alpha [611], HSP90AA1) was −0.46. The “L/H ratio of acetylated peptide TLVLSDK(ac)HSPQK(ac)K (SEQ ID NO: 5)” value (MLL3 [2809:2814], log 2 scale, drug vs DMSO) was 0.67, the “light to heavy ratio (L/H ratio) of acetylated peptide, log 2 scale” value (MPTPVIK(ac)AFGILK (SEQ ID NO: 154), Isoform Mitochondrial of Fumarate hydratase mitochondrial [94], FH) was −0.55 and the “L/H ratio of acetylated peptide LNK(ac)DQWEER (SEQ ID NO: 10)” value (MSN [165], log 2 scale, drug vs DMSO) was −0.38. For the same molecule, the “light to heavy ratio (L/H ratio) of acetylated peptide LSLLSK(ac)FR (SEQ ID NO: 564)” value (Mitochondrial trifunctional protein beta subunit (Fragment) [100], gene HADHB, inhibitor:DMSO) was 0.00 log 2, the “light to heavy ratio (L/H ratio) of acetylated peptide EIFQNEK(ac)R (SEQ ID NO: 288)” value (NAD(P) transhydrogenase mitochondrial [70], NNT, drug:DMSO) was 0.55 log 2 and the “light to heavy ratio (L/H ratio) of acetylated peptide AISPDK(ac)DNFYFDVK (SEQ ID NO: 284)” value (NAD(P) transhydrogenase mitochondrial [403], NNT, drug:DMSO) was 0.40 log 2. The “light to heavy ratio (L/H ratio) of acetylated peptide, log 2 scale” value (NATVGQSVLNIK(ac)YK (SEQ ID NO: 194), Peroxisome biogenesis factor 2 [84], PEX2) was 0.51 and the “light to heavy ratio (L/H ratio) of acetylated peptide, log 2 scale” value (NCMTDLLAK(ac)LEAK (SEQ ID NO: 201), Receptor expression-enhancing protein 5 [25], REEP5) was 0.49.
